The values below come from patent US20220162558A1, “METHOD FOR INDUCING DIFFERENTIATION OF STEM CELLS INTO CHONDROCYTES BY USING OLIGOPEPTIDES” (POSTERA HEALTH SCIENCE Inc., priority 2019, published 2022).

“Also recorded” adds a separate entry of the source.

What all share (format): cell-based
The subject of experiment [1] is COL II in tonsil-derived mesenchymal stem cells. Nature of the experiment: Immunofluorescence assay of COL II protein in sectioned 3D pellets. The conditions noted are these: 3D pellet culture, compared with control system and WFE- or WLE-treated system. The procedure:
Tonsil-derived mesenchymal stem cells (passage 6) were enzymatically detached by trypsin treatment and counted by a hemocytometer. The tube was centrifuged in 500-g relative centrifugal force (RCF) for 10 minutes and incubated at 37° C. under 5% carbon dioxide for 24 hours. A cell pellet consisting of about 3.0×10^5 cells was formed in a conical polypropylene tube (15 mL). The FBS-containing growth medium was replaced by medium A containing a high-glucose DMEM supplemented with 1.0% (v/v) antibiotic/antimitotic solution, 1.0% (v/v) penicillin/streptomycin solution, 50 μg/mL ascorbate-2-phosphate, 40 μg/mL L-proline, and 1% ITS+Premix (final concentration: 10 μg/mL bovine insulin, 5.5 μg/mL transferrin, 5 μg/mL sodium selenite, 4.7 μg/mL linoleic acid, and 0.5 mg/mL BSA), and 100 nM dexamethasone. Pellets were cultured at 37° C. under 5% carbon dioxide for 21 days under the following three different conditions: 1) medium A only, 2) medium A supplemented with kartogenin, or 3) medium A supplemented with each tripeptides. Each medium was replaced every three days. […]
The stem cell pellets were fixed in formalin aqueous solution (10% v/v) and embedded in paraffin. […] Then, the sectioned cell pellet samples were deparaffinized by xylene, and analyzed by immunofluorescence using antibody, alcian blue staining, and safranin O staining to visualize COL II, sGAG and proteoglycan, respectively. […]

For experiment [2], the system named is tonsil-derived mesenchymal stem cells (TMSCs). In words: First-round screening: chondrogenic biomarker mRNA expression by real-time RT-PCR in 2D culture. Conditions: tripeptide 10 μM, serum-free medium, after 7 days of incubation. The procedure: The medium was replaced every three days.
(§1) Total RNA was extracted from the cells by using a TRIZOL™ reagent (Invitrogen, USA). The mRNA concentration was assayed by Nano Drop 2000 spectrophotometer (Thermo Scientific, USA). cDNA was synthesized by ReverTra Ace® qPCR RT kit (Toyobo, Japan). mRNA expression levels were analyzed by real-time RT-PCR (CFX96™, Bio-Rad, USA) using IQ™ SYBR® Green Supermix (Bio-Rad, USA). The expression levels of target genes were calculated as 2^−ΔΔCt by the following calculation equation, and the primer sequences are shown in Table 1 below.
(§2) ΔΔCt=(gene A−GAPDH)−(gene A−GAPDH)control

Experiment [3] shares this test system. In words: 3D pellet culture: biomarker mRNA expression by real-time RT-PCR. The conditions noted are these: tripeptide 10 μM, 3D pellet culture in chondrogenic medium. The procedure:
(§3) Tonsil-derived mesenchymal stem cells (passage 6) were enzymatically detached by trypsin treatment and counted by a hemocytometer. The tube was centrifuged in 500-g relative centrifugal force (RCF) for 10 minutes and incubated at 37° C. under 5% carbon dioxide for 24 hours. A cell pellet consisting of about 3.0×10^5 cells was formed in a conical polypropylene tube (15 mL). The FBS-containing growth medium was replaced by medium A containing a high-glucose DMEM supplemented with 1.0% (v/v) antibiotic/antimitotic solution, 1.0% (v/v) penicillin/streptomycin solution, 50 μg/mL ascorbate-2-phosphate, 40 μg/mL L-proline, and 1% ITS+Premix (final concentration: 10 μg/mL bovine insulin, 5.5 μg/mL transferrin, 5 μg/mL sodium selenite, 4.7 μg/mL linoleic acid, and 0.5 mg/mL BSA), and 100 nM dexamethasone. Pellets were cultured at 37° C. under 5% carbon dioxide for 21 days under the following three different conditions: 1) medium A only, 2) medium A supplemented with kartogenin, or 3) medium A supplemented with each tripeptides. Each medium was replaced every three days. Triplicate experiments were carried out for each system.
as §1, §2
The medium was supplemented with each tripeptide (10 μM), and tonsil-derived mesenchymal stem cells (size: ˜ mm) were prepared. Chondrogenic medium without tripeptide was used as control experiment. Medium supplemented with kartogenin (target molecule) instead of tripeptide was used for the purpose of comparing chondrogenic differentiation of tonsil-derived mesenchymal stem cells.
A general note: Real-time PCR tracks product formation cycle by cycle.

In experiment [4] the test system is sGAG in tonsil-derived mesenchymal stem cells. Nature of the experiment: Alcian blue staining of sectioned 3D pellets. Conditions: 3D pellet cultured 21 days, sections of 7 μm. As to the method:
as §3

In experiment [5] the test system is proteoglycan in tonsil-derived mesenchymal stem cells. In words: Safranin O staining of sectioned 3D pellets. The conditions noted are these: 3D pellet cultured 21 days, sections of 7 μm. As to the method: as §3

As to `O=C(O)c1ccccc1C(=O)Nc1ccc(-c2ccccc2)cc1` [kartogenin, reference compound], the “COL II at protein level, red staining by immunofluorescence” value in experiment [1] was “distinguished for their red staining by COL II”.
Take tryptophan-leucine-glutamic acid [WLE]: the “chondrogenic biomarker expression at mRNA level (COL II, SOX 9, COMP)” value (shortened to “chondrogenic biomarker expression”) in experiment [2] is “enhanced”. Also, the “chondrogenic mRNAs of COL II, COMP and ACAN, expression” value (shortened to “chondrogenic mRNAs of COL II”) in experiment [3] is “highly expressed”.
On to “tryptophan-phenylalanine-glutamic acid [WFE]”, for which the “chondrogenic biomarker expression” value in experiment [2] is “enhanced”. Also, the “chondrogenic mRNAs of COL II” value in experiment [3] was “highly expressed”.
For tyrosine-tyrosine-glutamic acid [YYE], in experiment [2], the “chondrogenic biomarker expression” value is reported as “enhanced; also recorded: good promoter comparable to kartogenin”. The “chondrogenic mRNAs of COL II” value in experiment [3] is on record as “highly expressed”. Also, the “expression levels of COL X and COL I α2 relative to control system” value in experiment [3] (hypertrophy / osteogenic biomarkers) was “less than half of the control system”. The “COL II at protein level, red staining by immunofluorescence” value in experiment [1] is recorded as “distinguished for their red staining by COL II”. Besides, in experiment [4], the “sGAG, alcian blue staining” value was “upregulated”. The “proteoglycan, safranin O staining” value in experiment [5] was “upregulated”.
